Results: US20140056983A1, “FOOD ADDITIVE FOR RUMINANTS BASED ON EUGENOL AND CINNAMALDEHYDE” (priority 2005, published 2014)

Legend:
[1] = test system: liquid taken from the rumen; experiment: Study 1: in vitro digestibility of dehydrated alfalfa in rumen liquid (Tilley and Terry method); set-up: species or system cows; conditions: for ADFd (digestibility of acid digestible fiber) / DMd (digestibility of the dry matter) / NDFd (digestibility of neutral digestible fiber): dehydrated alfalfa, 30 ppm additive in total (mixture 15 + 15 ppm), 39° C., 24 hours; for digestibility of the fibers of the dehydrated alfalfa (in words): versus no additive
Protocol: During this first study, the effects of a mixture according to the invention on the digestibility of the feed of the ruminant animals was analyzed, by conducting an “in vitro” study in accordance with the Tilley and Terry method (1963). For a more complete description of this method, please refer to the following publication: […]. and Terry, R. A. 1963. A two stage technique for the in vitro digestion of forage crops. J. Brit. Grassland Soc. 18-104-111. For incubation the following was used: • a) The basic feed made up of 100% dehydrated alfalfa, supplemented by an equal amount of Peugenol, or of cinnamaldehyde, or of a mixture of the two components; • b) MacDougall buffer; • c) Liquid taken from the empty rumen of four animals permanently equipped with a nozzle on the level of the rumen and nourished with the basic feed. […] The ruminated liquid originated in fistulated cows during the first 100 days of lactation. The state of the first container was preserved, without making any addition. […] In the third container, 30 ppm cinnamaldehyde was added. In the fourth container, 15 ppm of eugenol and 15 ppm of cinnamaldehyde was added. The containers were incubated at 39° C. during 24 hours. The DacronTM sachets were removed, washed and dried at 55° C. Various digestibility parameters were determined according to the Van Soest et al. method (1991). For a more complete description of this method, please refer to the following publication: Van Soest, P. J. Robertson. J. D., and Lewis, B. A. 1991. Methods for dietary fibre, neutral detergent fibre and non-starch polysaccharides in relation to animal nutrition. J. Dairy Se. 74: 3583-3597.

[2] = test system: Holstein-Freisan milk cows; experiment: Study 2: food consumption and dairy production in milk cows, Latin Square 4x4; type: in vivo
Protocol: In the second study, the effect of a variation in the relative proportions of eugenol and cinnamaldehyde in a food additive on the production of meat and the dairy production was tested.
In this test, sixteen Holstein-Freisan milk cows, in their eighth week of lactation, were divided for Latin type Square 4×4 testing. Each period of treatment lasted two weeks.
The first group received a food without an additive.
The second group received a food containing 30 ppm cinnamaldehyde.
The third group received a food containing a mixture of 30 ppm cinnamaldehyde and 15 ppm of eugenol.
The fourth group received a food containing a mixture of 30 ppm eugenol and 16 ppm of cinnamaldehyde.
During each treatment period, the food consumption and the dairy production were measured.

rumen fluid = experiment: Study 5: in vitro feed digestibility, dose of the mixture versus monensin (Tilley and Terry method); set-up: species or system cows; conditions: after 24 hours; mixture 28% eugenol and 17% cinnamaldehyde at 3, 30, 300 mg per animal/per day; monensin as reference
Protocol: In the table above, the characteristics of each food are expressed as a percentage of dry matter, total protein, neutral digestible fiber (NDF), acid digestible fiber (ADF), for the oats, alfalfa, a complete feed (TMR). […] The effects of a mixture according to the invention on the feed digestibility according to the Tilley and Terry method were analyzed. […] Control bottles were also prepared, containing ethanol, to avoid the parasitic effects of fermentation due to ethanol. […] The results were analyzed by using mixed SAS procedures. The results were compared to the feed containing the monensin. The results from the feed containing monensin were considered a reference result. […] Thus, this fable reflects the digestibility of neutral digestible fiber (NDFd), digestibility of acid digestible fiber (ADFd), and dry matter digestibility (DMd), after 24 hours.

[3] = milk cows, eighth week of lactation, two-week treatment periods, ppm in food

SMILES: O=CC=Cc1ccccc1 [Cinnamaldehyde, cinnamaldehyde]
- ADFd (digestibility of acid digestible fiber) [1]: 8.53%
- DMd (digestibility of the dry matter) [1]: 39.06%
- NDFd (digestibility of neutral digestible fiber) [1]: 4.83%
- digestibility of the fibers of the dehydrated alfalfa (in words) [1]: does not improve
- Food Consumption [2, 3]: 2.571b kg MS/animal/d
- Milk Production [2, 3]: 37.23 l/animal/d
- food consumption (in words) ([2]; versus no additive): reduction
- milk production (in words) ([2]; versus no additive): reduction

SMILES: C=CCc1ccc(O)c(OC)c1 [Eugenol, eugenol]
- ADFd (digestibility of acid digestible fiber) [1]: 8.05%
- DMd (digestibility of the dry matter) [1]: 40.02%
- NDFd (digestibility of neutral digestible fiber) [1]: 5.63%
- digestibility of the fibers of the dehydrated alfalfa (in words) [1]: does not improve

SMILES: CC[C@@]1([C@@H]2O[C@@H]([C@H]3O[C@@](O)(CO)[C@H](C)C[C@@H]3C)C[C@@H]2C)CC[C@H]([C@]2(C)CC[C@]3(C[C@H](O)[C@@H](C)[C@@H]([C@@H](C)[C@@H](OC)[C@H](C)C(=O)O)O3)O2)O1 [MON, sodium-monensin]
- ADFd (digestibility of acid digestible fiber) (rumen fluid): 24.38
- DMd (dry matter digestibility) (rumen fluid): 43.43
- NDFd (digestibility of neutral digestible fiber) (rumen fluid): 22.24
